Measurements: PMC8371548 (BioTechniques, 2021)
“Also recorded” adds a separate entry of the source.

Legend:
AR [1] = conditions: read-out: IC50 range in ICCVAM meta-analysis; cited from earlier work
AR [2] = conditions: cited from earlier work; for EC50: read-out: AR-EcoScreen assay EC50, ref Dennis et al. [18]
androgen receptor (AR) = target: T1, androgen receptor (AR) (Homo sapiens, UniProt P10275); type: cell-based
T1 sequence (P10275 1-920): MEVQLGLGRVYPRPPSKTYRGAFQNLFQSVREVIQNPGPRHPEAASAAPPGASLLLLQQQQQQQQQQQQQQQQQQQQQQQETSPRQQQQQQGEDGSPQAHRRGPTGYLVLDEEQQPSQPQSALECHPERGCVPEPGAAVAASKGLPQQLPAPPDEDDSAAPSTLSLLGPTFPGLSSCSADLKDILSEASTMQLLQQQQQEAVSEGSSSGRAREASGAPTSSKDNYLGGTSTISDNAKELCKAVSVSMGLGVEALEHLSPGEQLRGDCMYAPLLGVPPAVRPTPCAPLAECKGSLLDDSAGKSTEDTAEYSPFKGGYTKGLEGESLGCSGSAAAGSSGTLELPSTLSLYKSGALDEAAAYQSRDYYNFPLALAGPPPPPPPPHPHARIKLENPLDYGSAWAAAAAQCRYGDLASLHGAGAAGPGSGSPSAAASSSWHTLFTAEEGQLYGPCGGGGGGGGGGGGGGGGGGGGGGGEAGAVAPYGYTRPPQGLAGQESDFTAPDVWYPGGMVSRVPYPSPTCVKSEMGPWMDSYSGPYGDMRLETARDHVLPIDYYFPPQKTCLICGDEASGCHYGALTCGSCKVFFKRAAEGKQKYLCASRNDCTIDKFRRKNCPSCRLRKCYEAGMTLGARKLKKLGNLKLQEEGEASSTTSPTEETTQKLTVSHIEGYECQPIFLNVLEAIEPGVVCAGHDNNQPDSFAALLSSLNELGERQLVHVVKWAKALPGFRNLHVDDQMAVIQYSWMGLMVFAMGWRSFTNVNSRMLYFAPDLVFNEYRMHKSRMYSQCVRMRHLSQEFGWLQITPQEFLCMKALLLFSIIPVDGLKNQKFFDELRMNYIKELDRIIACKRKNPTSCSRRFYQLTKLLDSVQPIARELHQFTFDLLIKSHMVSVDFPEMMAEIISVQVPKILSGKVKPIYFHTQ

H295R cells = test: H295R cell-based steroidogenesis assay; set-up: species or system human; conditions: for effect on testosterone production in words: 10^−11 to 10^−5 M
AR [3] = conditions: cited from earlier work
AR [4] = conditions: cited from earlier work; remark: listed apart in the source
AR [5] = conditions: cited from earlier work; remark: listed apart in the source
AR [6] = conditions: at high concentrations (10^−5 M); cited from earlier work

Compound: CC(O)(CS(=O)(=O)c1ccc(F)cc1)C(=O)Nc1ccc(C#N)c(C(F)(F)F)c1 (stereo not drawn) [Bicalutamide]
- IC50 (AR [1]): […]

Compound: C[C@]12CCC(=O)C[C@@H]1CC[C@@H]1[C@@H]2CC[C@]2(C)[C@@H](O)CC[C@@H]12 [5α-Dihydrotestosterone]
- EC50 (AR [2]): […]

Compound: C[C@]12C=CC3=C4CCC(=O)C=C4CC[C@H]3[C@@H]1CC[C@@H]2O [17β-Trenbolone, 17ß-Trenbolone]
- AR agonist activity in words (androgen receptor (AR)): strongly induced autobioluminescence; also recorded: induced autobioluminescent signal exceeding the maximal response of 5α-dihydrotestosterone

Compound: C#CC1(O)CC[C@H]2[C@@H]3CCC4=CC(=O)CC[C@@H]4[C@H]3CC[C@@]21CC (mixture of isomers) [Norgestrel, norgestrel]
- effect on testosterone production in words (H295R cells): increased testosterone production
- EC50 (H295R cells; Homo sapiens, NCI-H295R, read-out: H295R testosterone assay EC50): 730 nM

Compound: CC(=O)N1CCN(c2ccc(OCC3COC(Cn4ccnc4)(c4ccc(Cl)cc4Cl)O3)cc2)CC1 (stereo not drawn) [Ketoconazole]
- AR agonist classification in AR-EcoScreen assay (AR [2]): negative AR agonist
- AR agonism response in yeast assays (AR [3]): positive AR agonism response

Compound: C[C@]12C[C@H](O)[C@H]3[C@@H](CCC4=CC(=O)CC[C@@]43C)[C@@H]1CC[C@@H]2C(=O)CO [Corticosterone]
- AR agonist classification in AR-EcoScreen assay (AR [2]): Positive AR transcriptional activity
- AR transcriptional activity in MDA-kb2 assay (AR [4]): Positive AR transcriptional activity
- AR agonistic effects in yeast-based reporter assays (AR [3]): failed to elicit positive AR agonistic effects

Compound: CC(C)C(=O)Nc1ccc([N+](=O)[O-])c(C(F)(F)F)c1 [Flutamide]
- effect on testosterone production in words (H295R cells): did not induce autobioluminescence or change testosterone production
- effect on testosterone production in words (H295R cells; listed as flutamide): did not demonstrate a detectable change in testosterone production

Compound: C#C[C@]1(O)CC[C@H]2[C@@H]3CCc4cc(O)ccc4[C@H]3CC[C@@]21C [17α-Ethinylestradiol, 17α-Ethynylestradiol]
- AR antagonist classification in AR-EcoScreen assay (AR [5]): AR antagonist

Compound: CC(C)(O)C(=O)Nc1ccc([N+](=O)[O-])c(C(F)(F)F)c1 [Hydroxyflutamide]
- effect on testosterone production in words (H295R cells): did not alter testosterone production
- effect on testosterone production in words (H295R cells; listed as hydroxyflutamide): did not change testosterone levels
- AR transcriptional activation activity (AR [6]): low AR transcriptional activation activity
